Experimental data from patent publication US20250276924A1, “CHEMICAL AND BIOLOGICAL DEGRADATION OF ETHER PER- AND POLYFLUOROALKYL SUBSTANCES” (The Regents of the University of California, priority 2024, published 2025).

Experiment: Chemical treatment by UV (254 nm)/sulfite advanced reduction at pH 9.5
Type: physicochemical
Description: The chemical treatment of five non-biodegradable PFAS was conducted in 600 mL closed-system batch reactors equipped with a low-pressure mercury lamp (254 nm, 18 W) at 20° C. The reaction mixture contained 25 μM ether PFAS, 10 mM Na2SO3, and 5 mM NaHCO3 at pH 9.5 adjusted by NaOH. […]

Compound: O=C(O)C(F)(OC(F)(F)C(F)(F)C(F)(F)F)C(F)(F)F (centres unmarked) [E10, 2,3,3,3-tetrafluoro-2-(perfluoropropoxy)propanoic acid]
- defluorination by chemical reductive degradation (UV 254 nm, SO3^2− 10 mM, pH 9.5, after 48 h): less than 50%

Compound: Trifluoroacetic acid [TP112]
- degradation by UV/sulfite treatment (second advanced reduction treatment, result in words): quickly and completely degraded
